Consider 10 molecules from publication PMC9951859, “Investigation of α,ω-Disubstituted Polyamine-Cholic Acid Conjugates Identifies Hyodeoxycholic and Chenodeoxycholic Scaffolds as Non-Toxic, Potent Antimicrobials” (Antibiotics, 2023).

pIC50: −log10 of the molar value. ≈ marks a conversion by molar mass, not a printed value. Read-outs that look alike come from different tables or passages of the source.

Series [1] concerns Escherichia coli ATCC 25922. The series is described as follows: Antimicrobial MIC assay (CO-ADD) against E. coli. The class given is cell-based. The conditions noted are these: Escherichia coli, ATCC25922, read-out: MIC E.c. The source says: (§1) Antimicrobial evaluation against S. aureus (MRSA) (ATCC 43300), E. coli (ATCC 25922), K. pneumoniae (ATCC 700603), A. baumannii (ATCC 19606), C. albicans (ATCC 90028), and C. neoformans (ATCC 208821) was undertaken at the Community for Open Antimicrobial Drug Discovery at The University of Queensland (Australia) according to their standard protocols as reported previously.

Series [2] deals with Pseudomonas aeruginosa ATCC 27853. Briefly: Antimicrobial MIC assay (CO-ADD) against P. aeruginosa. Conditions: Pseudomonas aeruginosa, ATCC27853, read-out: MIC P.a. The class given is cell-based.
Series [3] deals with Klebsiella pneumoniae ATCC 700603. Briefly: Antimicrobial MIC assay (CO-ADD) against K. pneumoniae. The series is classed as cell-based. The conditions noted are these: Klebsiella pneumoniae, ATCC700603, read-out: MIC K.p.
Text: as §1

For series [4], the system named is Acinetobacter baumannii ATCC 19606. Briefly: Antimicrobial MIC assay (CO-ADD) against A. baumannii. The class given is cell-based. Conditions: Acinetobacter baumannii, ATCC19606, read-out: MIC A.b.
Text: as §1

Series [5] relates to Staphylococcus aureus ATCC 43300 (MRSA). The series is described as follows: Antimicrobial MIC assay (CO-ADD) against S. aureus MRSA. The class given is cell-based. The conditions noted are these: Staphylococcus aureus, read-out: MIC S.a.
Text: as §1

For series [6], the system named is human red blood cells. The series is described as follows: Hemolytic assay. The conditions noted are these: concentration at 10% hemolytic activity on human red blood cells; mean (n = 2); top dose tested 32 μg/mL. The class given is cell-based. Here is the method:
Hemolytic assays were conducted using the protocols previously reported.

The test system of series [7] is Candida albicans ATCC 90028. The series is described as follows: Antimicrobial MIC assay (CO-ADD) against C. albicans. The class given is cell-based. The conditions noted are these: mean (n = 2).
Text: as §1

Series [8] in a line: Cytotoxicity assay on HEK293. The series is classed as cell-based, human. Conditions: human, HEK293 human embryonic kidney cells; concentration at 50% cytotoxicity on HEK293; mean (n = 2); top dose tested 32 μg/mL. The protocol:
Cytotoxicity assays were conducted using the protocols previously reported.

Series [9] has as its system Cryptococcus neoformans ATCC 208821. Briefly: Antimicrobial MIC assay (CO-ADD) against C. neoformans. The series is classed as cell-based.
Text: as §1

Where [10] appears, read: Candida albicans, ATCC90028, read-out: MIC C.a., Candida albicans ATCC 90028.
[11] abbreviates: Cryptococcus neoformans, ATCC208821, read-out: MIC C.n.

Turning to `C[C@H](CCC(=O)NCCCNCCCCCCNCCCNC(=O)CC[C@@H](C)[C@H]1CC[C@H]2[C@@H]3C[C@H](O)[C@@H]4C[C@H](O)CC[C@]4(C)[C@H]3CC[C@]12C)[C@H]1CC[C@H]2[C@@H]3C[C@H](O)[C@@H]4C[C@H](O)CC[C@]4(C)[C@H]3CC[C@]12C.O=C(O)C(F)(F)F.O=C(O)C(F)(F)F` [Compound 7b, N^1,N^6-Bis(3-((R)-4-((3R,5R,6S,8S,9S,10R,13R,14S,17R)-3,6-dihydroxy-10,13-dimethylhexadecahydro-1H-cyclopenta[a]phenanthren-17-yl)pentanamido)propyl)hexane-1,6-diaminium 2,2,2-trifluoroacetate], the minimum inhibitory concentration (MIC) in [1] is greater than 26 µM; in series [2], greater than 26 µM; in series [3], greater than 26 µM; in [4], greater than 26 µM; in series [5], no more than 0.21 µM; in [7] (setting [10]) it was 13 µM. The minimum inhibitory concentration (MIC) in series [9] (setting [11]) was no more than 0.21 µM. Moreover, the “Hemolysis (HC10)” value in series [6] was greater than 26 µM. The same molecule gave a pIC50 in series [8] of less than 4.59.
For `C[C@H](CCC(=O)NCCCNCCCCCCCCCCCCNCCCNC(=O)CC[C@@H](C)[C@H]1CC[C@H]2[C@@H]3C[C@H](O)[C@@H]4C[C@H](O)CC[C@]4(C)[C@H]3CC[C@]12C)[C@H]1CC[C@H]2[C@@H]3C[C@H](O)[C@@H]4C[C@H](O)CC[C@]4(C)[C@H]3CC[C@]12C.O=C(O)C(F)(F)F.O=C(O)C(F)(F)F` [Compound 7f, N^1,N^12-Bis(3-((R)-4-((3R,5R,6S,8S,9S,10R,13R,14S,17R)-3,6-dihydroxy-10,13-dimethylhexadecahydro-1H-cyclopenta[a]phenanthren-17-yl)pentanamido)propyl)dodecane-1,12-diaminium 2,2,2-trifluoroacetate], the MIC was greater than 25 µM in series [1]; greater than 25 µM in [2]; greater than 25 µM in [3]; greater than 25 µM in series [4]; no more than 0.19 µM in series [5]; no more than 0.2 µM in series [7] (setting [10]). Besides, in [9] (setting [11]), the minimal inhibitory concentration (MIC) was no more than 0.19 µM. Also, the “Hemolysis (HC10)” value in [6] is greater than 25 µM. Also, in series [8], the pIC50 is 4.60.
`C[C@H](CCC(=O)NCCCNCCCCNCCCNC(=O)CC[C@@H](C)[C@H]1CC[C@H]2[C@@H]3[C@@H](O)C[C@@H]4C[C@H](O)CC[C@]4(C)[C@H]3CC[C@]12C)[C@H]1CC[C@H]2[C@@H]3[C@@H](O)C[C@@H]4C[C@H](O)CC[C@]4(C)[C@H]3CC[C@]12C.O=C(O)C(F)(F)F.O=C(O)C(F)(F)F` [Compound 8a, N^1,N^4-Bis(3-((R)-4-((3R,5S,7S,8R,9S,10S,13R,14S,17R)-3,7-dihydroxy-10,13-dimethylhexadecahydro-1H-cyclopenta[a]phenanthren-17-yl)pentanamido)propyl)butane-1,4-diaminium 2,2,2-trifluoroacetate]: the MIC in series [1] is greater than 27 µM; in [2] it was greater than 27 µM; in [3], greater than 27 µM; in series [4] it was greater than 27 µM; in series [5] it was 27 µM; in [7] (setting [10]), 27 µM. For the same molecule, in series [9] (setting [11]), the MIC is greater than 27 µM. Also, in series [6], the “Hemolysis (HC10)” value was found to be 7.3 µM. The molecule further showed a negative logarithm of the IC50 (pIC50) in [8] of less than 4.57.
Consider `C[C@H](CCC(=O)NCCCNCCCCCCNCCCNC(=O)CC[C@@H](C)[C@H]1CC[C@H]2[C@@H]3[C@@H](O)C[C@@H]4C[C@H](O)CC[C@]4(C)[C@H]3CC[C@]12C)[C@H]1CC[C@H]2[C@@H]3[C@@H](O)C[C@@H]4C[C@H](O)CC[C@]4(C)[C@H]3CC[C@]12C.O=C(O)C(F)(F)F.O=C(O)C(F)(F)F` [Compound 8b, N^1,N^6-Bis(3-((R)-4-((3R,5S,7S,8R,9S,10S,13R,14S,17R)-3,7-dihydroxy-10,13-dimethylhexadecahydro-1H-cyclopenta[a]phenanthren-17-yl)pentanamido)propyl)hexane-1,6-diaminium 2,2,2-trifluoroacetate], for which the MIC is greater than 26 µM in series [1]; greater than 26 µM in [2]; greater than 26 µM in [3]; greater than 26 µM in [4]; 1.7 µM in [5]; 27 µM in [7] (setting [10]). Besides, the minimum inhibitory concentration (MIC) in series [9] (setting [11]) is greater than 27 µM. Also, in series [6], the “Hemolysis (HC10)” value stood at 11 µM. In series [8], this molecule had a pIC50 of less than 4.57.
For `C[C@H](CCC(=O)NCCCNCCCCCCCNCCCNC(=O)CC[C@@H](C)[C@H]1CC[C@H]2[C@@H]3[C@@H](O)C[C@@H]4C[C@H](O)CC[C@]4(C)[C@H]3CC[C@]12C)[C@H]1CC[C@H]2[C@@H]3[C@@H](O)C[C@@H]4C[C@H](O)CC[C@]4(C)[C@H]3CC[C@]12C.O=C(O)C(F)(F)F.O=C(O)C(F)(F)F` [Compound 8c, N^1,N^7-Bis(3-((R)-4-((3R,5S,7S,8R,9S,10S,13R,14S,17R)-3,7-dihydroxy-10,13-dimethylhexadecahydro-1H-cyclopenta[a]phenanthren-17-yl)pentanamido)propyl)heptane-1,7-diaminium 2,2,2-trifluoroacetate], the MIC in [1] is greater than 26 µM; in [2] it was greater than 26 µM; in [3], greater than 26 µM; in [4], greater than 26 µM; in series [5], no more than 0.21 µM; in [7] (setting [10]), 13 µM. Besides, the MIC in series [9] (setting [11]) came out at 26 µM. Further, in [6], the “Hemolysis (HC10)” value was 11 µM. Besides, in series [8], the negative-log IC50 (pIC50) is less than 4.59.
Turning to `C[C@H](CCC(=O)NCCCNCCCCCCCCNCCCNC(=O)CC[C@@H](C)[C@H]1CC[C@H]2[C@@H]3[C@@H](O)C[C@@H]4C[C@H](O)CC[C@]4(C)[C@H]3CC[C@]12C)[C@H]1CC[C@H]2[C@@H]3[C@@H](O)C[C@@H]4C[C@H](O)CC[C@]4(C)[C@H]3CC[C@]12C.O=C(O)C(F)(F)F.O=C(O)C(F)(F)F` [Compound 8d, N^1,N^8-Bis(3-((R)-4-((3R,5S,7S,8R,9S,10S,13R,14S,17R)-3,7-dihydroxy-10,13-dimethylhexadecahydro-1H-cyclopenta[a]phenanthren-17-yl)pentanamido)propyl)octane-1,8-diaminium 2,2,2-trifluoroacetate], the minimum inhibitory concentration (MIC) in series [1] was greater than 26 µM; in series [2] it was greater than 26 µM; in series [3], greater than 26 µM; in series [4] it was greater than 26 µM; in [5] it was no more than 0.2 µM; in series [7] (setting [10]), 26 µM. Moreover, in [9] (setting [11]), the minimal inhibitory concentration (MIC) was determined as 13 µM. Further, the “Hemolysis (HC10)” value in [6] is 5.6 µM. In series [8], this molecule gave a pIC50 of less than 4.59.
On to `C[C@H](CCC(=O)NCCCNCCCCCCCCCCNCCCNC(=O)CC[C@@H](C)[C@H]1CC[C@H]2[C@@H]3[C@@H](O)C[C@@H]4C[C@H](O)CC[C@]4(C)[C@H]3CC[C@]12C)[C@H]1CC[C@H]2[C@@H]3[C@@H](O)C[C@@H]4C[C@H](O)CC[C@]4(C)[C@H]3CC[C@]12C.O=C(O)C(F)(F)F.O=C(O)C(F)(F)F` [Compound 8e, N^1,N^10-Bis(3-((R)-4-((3R,5S,7S,8R,9S,10S,13R,14S,17R)-3,7-dihydroxy-10,13-dimethylhexadecahydro-1H-cyclopenta[a]phenanthren-17-yl)pentanamido)propyl)decane-1,10-diaminium 2,2,2-trifluoroacetate], for which the MIC was greater than 25 µM in [1]; greater than 25 µM in [2]; greater than 25 µM in series [3]; greater than 25 µM in series [4]; no more than 0.2 µM in series [5]; 3.2 µM in series [7] (setting [10]). In addition, the MIC in series [9] (setting [11]) was determined as 1.6 µM. Moreover, the “Hemolysis (HC10)” value in [6] was found to be 3.3 µM. Besides, the pIC50 in series [8] was less than 4.60.
`CC/C(=C(\c1ccccc1)c1ccc(OCCN(C)C)cc1)c1ccccc1` [Tamoxifen, reference compound] gave a negative logarithm of the IC50 (pIC50) in series [8] of 4.62.
`OC(Cn1cncn1)(Cn1cncn1)c1ccc(F)cc1F` [fluconazole, reference compound]: the MIC in [7] (ATCC90028, Candida albicans ATCC 90028, read-out: MIC C.a.) was determined as 0.4 µM (≈ 0.123 µg/mL); in series [9] (ATCC208821, Cryptococcus neoformans ATCC 208821, mean (n = 2), read-out: MIC C.n.), 26 µM (≈ 7.96 µg/mL).
As for `CN[C@H](CC(C)C)C(=O)N[C@H]1C(=O)N[C@@H](CC(N)=O)C(=O)N[C@H]2C(=O)N[C@H]3C(=O)N[C@H](C(=O)N[C@H](C(=O)O)c4cc(O)cc(O)c4-c4cc3ccc4O)[C@H](O)c3ccc(c(Cl)c3)Oc3cc2cc(c3O[C@@H]2O[C@H](CO)[C@@H](O)[C@H](O)[C@H]2O[C@H]2C[C@](C)(N)[C@H](O)[C@H](C)O2)Oc2ccc(cc2Cl)[C@H]1O` [vancomycin, reference compound], in series [5], the minimum inhibitory concentration (MIC) turned out to be 0.7 µM (≈ 1.01 µg/mL).

As a reminder, the MIC is the smallest concentration in the dilution series that meets the test's criterion for growth inhibition. One may read the pIC50 as −log10 of the IC50, conventionally taken in molar units. Read a low pIC50 as a high IC50.
